In PMC7612365 (Cancer Discovery, 2021):
Where two headings read alike, the source gives them in different places.

Columns and labels:
[1] = substrates of efflux transporters ABCB1 (P-gp) and/or ABCG2 (BCRP) ref 27, 28; cited from earlier work
ABCB1 (P-gp) [2] = target: T1, ABCB1 (P-gp) (Homo sapiens, UniProt P08183); assay: Caco-2 permeability assay with P-gp substrate indinavir
Protocol: (§1) Apparent permeability (Papp) was determined in the Caco-2 human colon carcinoma cell line. Cells were maintained (DMEM with 10% FBS, penicillin, and streptomycin) in a humidified atmosphere with 5%CO2/95% air for 10 days. Cells were plated out onto a cell culture assembly plate (Millipore), and monolayer confluency was checked using a transepithelial electrical resistance (TEER) electrode prior to the assay. Media were washed off and replaced in the appropriate apical and basal wells with Hank's Balanced Salt Solution buffer (pH 7.4). […] LY335979 (P-gp inhibitor) and Ko134 (BCRP inhibitor) were used as positive controls. The Caco-2 plate was incubated for 2 hours at 37°C in a humidified atmosphere with 5% CO2, and Lucifer yellow was used to confirm membrane integrity after the assay. Samples from the apical and basolateral chambers were analyzed using reverse chromatography tandem mass spectrometry on a Waters TQ-S.

ABCG2 (BCRP) = target: T2, ABCG2 (BCRP) (Homo sapiens, UniProt Q9UNQ0); assay: Caco-2 permeability assay with BCRP substrate E3S; type: in vitro ADME; conditions: for interaction with BCRP / B–A apparent permeability of control substrate: Caco-2
T2 construct: Apparent permeability (Papp) was determined in the Caco-2 human colon carcinoma cell line; endogenous in cells; host or cells: Caco-2
T2 sequence (Q9UNQ0 1-655): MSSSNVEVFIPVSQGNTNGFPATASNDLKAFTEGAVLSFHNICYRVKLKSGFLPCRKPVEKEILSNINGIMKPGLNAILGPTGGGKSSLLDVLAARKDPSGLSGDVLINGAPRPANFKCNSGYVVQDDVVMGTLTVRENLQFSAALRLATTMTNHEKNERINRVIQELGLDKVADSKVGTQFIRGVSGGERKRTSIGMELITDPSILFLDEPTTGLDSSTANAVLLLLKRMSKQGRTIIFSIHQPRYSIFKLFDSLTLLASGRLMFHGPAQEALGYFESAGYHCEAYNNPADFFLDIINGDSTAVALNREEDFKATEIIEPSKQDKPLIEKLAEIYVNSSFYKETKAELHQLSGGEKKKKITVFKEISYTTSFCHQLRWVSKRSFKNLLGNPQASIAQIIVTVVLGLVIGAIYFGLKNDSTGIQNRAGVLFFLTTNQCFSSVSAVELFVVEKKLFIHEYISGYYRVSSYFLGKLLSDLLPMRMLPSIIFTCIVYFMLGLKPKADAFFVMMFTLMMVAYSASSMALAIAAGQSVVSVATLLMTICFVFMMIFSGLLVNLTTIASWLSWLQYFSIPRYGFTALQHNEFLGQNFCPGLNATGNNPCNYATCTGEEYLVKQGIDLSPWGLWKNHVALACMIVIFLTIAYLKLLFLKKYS
Protocol: as §1

[3] = up to 70 mg weekly ref 54; cited from earlier work
[4] = cited from earlier work
[5] = Vandetanib concentration in brain and tumor of nude mice; type: in vivo; conditions: female, athymic nude, mouse, intraperitoneal, combined with everolimus
Protocol: (§2) Both patient-derived H3F3A^K27M, ACVR1^R206H HSJD-DIPG-007 cells and those derived from a Nestin-Tv-a; Trp53^fl/fl; Hist1h3b^K27M, Acvr1^R206H ([14]) GEMM were used for orthotopic implantation. A single-cell suspension of each culture was made the day before implantation and cultured overnight. On the implantation day, small tumorspheres in exponential growth were harvested by mild centrifugation. Three-week-old female athymic mice were anesthetized with 100 mg/kg ketamine and 10 mg/kg xylazine and immobilized in a stereotaxic apparatus (Stoelting) at coordinates x+0.5 and y−5.4 from the bregma suture. HSJD-DIPG-007 tumorspheres (5 × 10^5 cells), suspended in 5 μL Matrigel (BD Biosciences), were injected at a 3.1-mm depth (targeting the fourth ventricle) with a dull 22-gauge needle attached to a 50-μL syringe (Hamilton), using a stereotaxic arm. The animals (n = 72) were divided in four groups, with treatment starting 4 weeks (day 25) after tumor inoculation. […] Mice were monitored by daily weighing and sacrificed by decapitation upon deterioration of condition or 20% weight loss from the maximum weight achieved, with tissue taken for further analysis. Mouse brains collected at the end of the efficacy study were processed for IHC. […]

ABCB1 (P-gp) [6] = target: T1, ABCB1 (P-gp); conditions: Caco-2
Protocol: as §1

[7] = with everolimus to inhibit P-gp and BCRP ref 41; cited from earlier work
DIPG = conditions: cited from earlier work
[8] = Vandetanib concentration in brain and tumor of NSG mice; type: in vivo; conditions: mouse, intraperitoneal, combined with everolimus
Protocol: as §2

[9] = Vandetanib brain concentration in non-tumor-bearing mice (LC-MS/MS); type: in vivo, mouse; conditions: with everolimus compared with vandetanib alone, P = 0.0854
Protocol: Plasma and brain tissue samples were taken in triplicate at 1 hour after the last dose. Analysis was carried out by LC-MS/MS using a Xevo TQS coupled with an Acquity UPLC H-class system (Waters). Chromatography was carried out using a Phenomenex C18 X-B column (2.6 μm, 50 × 2.1 mm). Data acquisition was performed using Targetlynx, version 4.1, and modeling was carried out using Phoenix WinNonlin version 6.3.

[10] = system: ACVR1-mutant and wild-type patient-derived DIPG cells; assay: Single-agent cell viability in patient-derived DIPG cells; conditions: in vitro; P = 0.0272
Protocol: Cells were plated at a density of 2,000 to 4,000 cells/well on laminin-coated 96-well plates in a minimum of triplicates. After 3 days of incubation, compounds were added to each well and incubated at 37°C in 5% CO2, 95% humidity for 8 days (192 hours). […] Cell viability was assessed by the CellTiter-Glo luminescent cell viability assay (Promega).

T1 sequence (P08183 whole entry): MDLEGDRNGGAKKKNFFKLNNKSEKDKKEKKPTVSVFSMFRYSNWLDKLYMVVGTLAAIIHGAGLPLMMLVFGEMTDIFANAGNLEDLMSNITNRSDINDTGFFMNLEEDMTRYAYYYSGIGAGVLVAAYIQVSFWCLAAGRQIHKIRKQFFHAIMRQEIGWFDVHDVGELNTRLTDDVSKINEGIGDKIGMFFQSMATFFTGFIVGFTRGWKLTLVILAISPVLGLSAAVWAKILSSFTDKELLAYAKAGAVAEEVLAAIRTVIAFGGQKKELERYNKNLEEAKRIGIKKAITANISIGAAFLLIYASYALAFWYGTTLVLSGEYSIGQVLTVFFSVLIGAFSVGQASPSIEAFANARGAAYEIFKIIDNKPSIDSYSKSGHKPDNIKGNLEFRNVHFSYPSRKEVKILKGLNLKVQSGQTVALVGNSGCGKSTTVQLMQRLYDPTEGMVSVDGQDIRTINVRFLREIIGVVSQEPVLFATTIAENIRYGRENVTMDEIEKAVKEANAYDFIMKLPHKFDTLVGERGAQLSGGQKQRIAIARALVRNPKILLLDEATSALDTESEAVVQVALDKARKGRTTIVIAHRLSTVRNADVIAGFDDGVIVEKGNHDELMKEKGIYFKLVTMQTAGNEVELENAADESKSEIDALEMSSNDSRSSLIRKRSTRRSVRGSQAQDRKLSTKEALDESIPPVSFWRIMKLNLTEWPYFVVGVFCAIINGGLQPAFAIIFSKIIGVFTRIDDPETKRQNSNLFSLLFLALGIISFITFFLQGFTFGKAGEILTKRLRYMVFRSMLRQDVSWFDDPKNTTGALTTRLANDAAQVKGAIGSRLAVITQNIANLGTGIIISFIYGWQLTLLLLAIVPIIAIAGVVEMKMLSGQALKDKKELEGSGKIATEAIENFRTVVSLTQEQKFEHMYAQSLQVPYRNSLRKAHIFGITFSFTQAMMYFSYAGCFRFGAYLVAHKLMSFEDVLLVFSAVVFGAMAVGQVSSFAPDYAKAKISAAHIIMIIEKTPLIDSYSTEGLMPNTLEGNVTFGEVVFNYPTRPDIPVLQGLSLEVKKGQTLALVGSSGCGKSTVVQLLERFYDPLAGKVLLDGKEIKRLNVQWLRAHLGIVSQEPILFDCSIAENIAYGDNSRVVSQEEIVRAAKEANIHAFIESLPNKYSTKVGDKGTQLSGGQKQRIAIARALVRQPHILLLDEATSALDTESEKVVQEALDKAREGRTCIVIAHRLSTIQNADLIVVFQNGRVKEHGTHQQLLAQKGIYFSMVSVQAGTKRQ

C[C@@H](Oc1cc(-c2cnn(C3CCNCC3)c2)cnc1N)c1c(Cl)ccc(F)c1Cl [crizotinib]
brain exposure [1]: insufficient brain exposures

CO[C@H]1C[C@@H]2CC[C@@H](C)[C@@](O)(O2)C(=O)C(=O)N2CCCC[C@H]2C(=O)O[C@H]([C@H](C)C[C@@H]2CC[C@@H](OCCO)[C@H](OC)C2)CC(=O)[C@H](C)/C=C(\C)[C@@H](O)[C@@H](OC)C(=O)[C@H](C)C[C@H](C)/C=C/C=C/C=C/1C [everolimus]
interaction with P-gp / B–A apparent permeability of control substrate (ABCB1 (P-gp) [2]): significantly decreased
interaction with BCRP / B–A apparent permeability of control substrate (ABCG2 (BCRP)): significantly decreased
mean peak levels compared with standard regimens [3]: tenfold higher
tolerability of higher doses [3]: well tolerated
MTD and recommended phase II dose of everolimus ([4]; in combination with vandetanib ref 42): 10 mg once daily

COc1cc2c(Nc3ccc(Br)cc3F)ncnc2cc1OCC1CCN(C)CC1 [vandetanib]
concentration at 2 h ([5]; normal brain): > 15 µM
concentration at 2 h ([5]; tumour (PDX)): > 15 µM
interaction with BCRP / B–A apparent permeability of control substrate (ABCG2 (BCRP)): weak interactions
effect of adding vandetanib to everolimus on BCRP substrate permeability (ABCG2 (BCRP); Caco-2, combination): no effect
interaction with P-gp / B–A apparent permeability of control substrate (ABCB1 (P-gp) [6]): weak interactions
vandetanib brain concentrations in mice [7]: significantly increased
DLT (diarrhea grade 3) (DIPG; in vivo): one
RP2D (DIPG; in vivo): 145 mg/m^2/d
patients with grade 4 hypertension and posterior reversible encephalopathy syndrome (DIPG; in vivo): two
2-year OS (DIPG; single agent ref 32): 21.4%
MTD (DIPG; single agent ref 32): not reached
objective responses (DIPG; single agent ref 32): no objective responses
concentration at 2 h ([8]; normal brain): 10 µM
concentration at 2 h ([8]; tumour (GEMM allograft)): < 5 µM
increase of median brain concentration of vandetanib [9]: 56%
enhanced difference in cell viability, ACVR1-mutant compared with wild-type DIPG cells [10]: approximately twofold
brain exposure [1]: insufficient brain exposures
MTD and recommended phase II dose of vandetanib ([4]; in combination with everolimus ref 42): 300 mg once daily
